Data taken from patent publication US9701670B2, “Pyrazolyl-ureas as kinase inhibitors” (RESPIVERT LIMITED, priority 2013, dated 2017).
Marks after values point to notes of the source that are not given here.

Legend:
[1] = target: p38 MAPKα isoform (MAPK14) (Homo sapiens (Human), UniProt Q16539); assay: p38 MAPKα enzyme inhibition (FRET, Z-LYTE), Method 2; type: biochemical; details: Method 2, different laboratory (Table 4a2)
SCID mice = assay: (D) Adoptive transfer in mice; type: in vivo, mouse
Method: On Study day 0, female Balb/C mice are terminated and spleens obtained for CD45RB^high cell isolation (Using SCID IBD cell Separation protocol). Approximately 4×10^5 cells/mL CD45RB^high cells are then injected IP (100 μL/mouse) into female SCID animals. On study day 14, mice are weighed and randomized into treatment groups based on body weight. On Day 21, compounds are administered BID, via oral gavage, in a peanut oil vehicle at the dose levels outlined below and a dose volume of 5 mL/kg. Treatment continues until study day 42, at which point the animals are necropsied 4 hours after am administration. The colon length and weight is recorded and used as a secondary endpoint in the study as a measurement of colon oedema. The colon is then divided into six cross-sections, four of which are used for histopathology scoring (primary endpoint) and two are homogenised for cytokine analysis. Data shown is the % inhibition of the induction window between naïve animals and vehicle animals, where higher inhibition implies closer to the non-diseased, naïve, phenotype.

BDF1 mice = assay: (C) TNBS-induced colitis in mice; type: in vivo, mouse; design: TNBS Ulcer grade / TNBS LP inflammation: scale not given here; details: 2 days; for TNBS LP inflammation / TNBS Ulcer grade: mice
Method: Non-fasted, 10-12 week old, male BDF1 mice are dosed by oral gavage twice daily with either vehicle (5 mL/kg), reference item (Budesonide 2.5 mg/kg) or test compound (1, 5 or 50 mg/kg) one day before (Day −1) stimulation of the inflammatory response by treatment with 2,4,6-trinitrobenzenesulphonic acid (TNBS) (15 mg/mL in 50% ethanol/50% saline). On Day 0 of the study TNBS (200 μL) is administered intra-colonically via a plastic catheter followed by BID dosing of the vehicle, reference or test compound for 2 or 4 days. During the study animals are weighed every day and stool observations are made and recorded as a score, based on stool consistency. At the time of sacrifice on Day 2 (or Day 4) the large intestine is removed and the length and weight recorded. Sections of the colon are taken for either MPO analysis to determine neutrophil infiltration or for histopathology involving scoring to determine disease severity.

[2] = system: β-catenin in d-U937 cells; assay: (m) Accumulation of β catenin in d-U937 cells; type: cell-based, human
In short: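 PMA-differentiated U937 macrophage-type cells (100 ng/mL, 48–72 hr) were exposed to test compound or vehicle for 18 hr, then fixed. β-catenin was measured by cell ELISA (HRP/TMB, OD450-655) and normalised to crystal violet OD595. Signals below 15% of the standard control were designated "-ve".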

[3] = Cryopreserved hepatocyte stability; type: in vitro ADME; details: scaled from intrinsic clearance, mean of two experiments
Method: Formulae CIint(tissue clearance) mL/min/kg=[0.693/t½(min)]×[1/microsomal protein concentration mg/mL]×[mg microsomes/g liver]×[g liver/kg body weight] […] The incubations were performed at 37° C. with 100 μL samples taken from the incubation, at 0, 10, 20, 45 and 90 minutes, and reactions terminated by addition of 100 μL of acetonitrile containing carbamazepine as analytical internal standard. […] Half-life values were calculated from the relationship T1/2(min)=−0.693/λ • where λ was the slope of the Ln concentration vs time curve. • Standard compounds testosterone, midazolam and 4-methylumbelliferone are included in the assay design.
CIint(Tissue Clearance) mL/min/kg=[0.693/t½(min)]×[1/hepatocyte concentration (million cells/mL)]×[million cells/g liver]×[g liver/kg body weight] CIint(Hepatic clearance) mL/min/kg=hepatic blood flow×CIint/(hepatic blood flow+CIint) Hepatic extraction ratio (Eh)=CIint(Hepatic clearance) mL/min/kg/hepatic blood flow (mL/min/kg)

Chain of p38 MAPKα isoform (MAPK14) (Q16539 whole entry, canonical isoform): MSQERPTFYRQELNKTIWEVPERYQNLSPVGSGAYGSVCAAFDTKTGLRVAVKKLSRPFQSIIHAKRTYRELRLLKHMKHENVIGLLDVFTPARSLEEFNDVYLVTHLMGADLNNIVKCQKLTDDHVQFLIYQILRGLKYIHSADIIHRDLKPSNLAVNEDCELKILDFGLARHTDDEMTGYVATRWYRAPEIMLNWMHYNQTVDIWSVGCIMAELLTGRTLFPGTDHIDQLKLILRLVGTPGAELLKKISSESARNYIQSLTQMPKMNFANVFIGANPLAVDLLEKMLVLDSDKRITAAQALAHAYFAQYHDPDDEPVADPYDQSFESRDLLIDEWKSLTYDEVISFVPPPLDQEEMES

C#Cc1cc(Nc2nccc(Oc3ccc(NC(=O)Nc4cc(C(C)(C)C)nn4-c4ccc(OC)cc4)c4ccccc34)n2)cc(C(=O)NCCN2CCOCC2)c1 [Example 77, 3-((4-((4-(3-(3-(tert-Butyl)-1-(4-methoxyphenyl)-1H-pyrazol-5-yl)ureido)-naphthalen-1-yl)oxy)pyrimidin-2-yl)amino)-5-ethynyl-N-(2-morpholinoethyl)benzamide]
IC50 [1]: 22 nM
ratio of colon weight:length and relative inhibition of cytokine release (SCID mice; adoptive transfer model of colonic inflammation): significant activity
% inhibition of IL-8 release (SCID mice; adoptive transfer mouse model, 5 mg/kg BID oral): 68%
% Inhibition of colon weight:length (SCID mice; adoptive transfer mouse model, 5 mg/kg BID oral, P < 0.05 ANOVA to vehicle): 51%*
histopathology analysis, in vivo model of colonic inflammation (BDF1 mice; TNBS-induced colitis, dosed orally at 5 mg/kg): significant activity
TNBS LP inflammation (BDF1 mice; 1 mg/kg oral BID): 2.4 ± 0.3
TNBS Ulcer grade (BDF1 mice; 1 mg/kg oral BID): 3.1 ± 0.5
TNBS LP inflammation (BDF1 mice; 5 mg/kg oral BID): 2.1 ± 0.3
TNBS Ulcer grade (BDF1 mice; 5 mg/kg oral BID): 2.4 ± 0.5
% β-catenin induction ([2]; 1 μg/mL test compound): 1%
% β-catenin induction ([2]; 5 μg/mL test compound): 0%
% β-catenin induction ([2]; 10 μg/mL test compound): −8%
Mean hepatic extraction ratio (Eh) ([3]; dog hepatocytes): 0.87
Mean hepatic extraction ratio (Eh) ([3]; human hepatocytes): 0.69
Mean hepatic extraction ratio (Eh) ([3]; rat hepatocytes): 0.55
